Data published in US12679878B2, “CRF2 receptor agonists and their use in therapy” (SANOFI, priority 2020, dated 2026).
Like-named read-outs stand apart in the source and are kept apart here. Starred links: 1 amine or outer side, 2 acyl side, 3 side chain; linkers in the order of their positions; H or OH if unused. Residues, ends and D or L forms follow the SMILES beside them. Groups on a side chain read outwards from the residue. *: point of attachment. C20 diacid = O=C(O)CCCCCCCCCCCCCCCCCCC(=O)*; C18 diacid = O=C(O)CCCCCCCCCCCCCCCCC(=O)*; γGlu = O=C(O)[C@H](CCC(=O)[*:2])N[*:1]; AEEA = NCCOCCOCC(=O)O

Tests used:
[1] = Chemical stability, purity loss by UPLC-UV after 28 days at 40° C. vs 5° C., pH 4.5 acetate buffer (Example 12); type: physicochemical; conditions: 28 days 40° C. vs 5° C.; pH 4.5, 20 mM acetate buffer; 300 μM
Summary of the method: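 300 μM compound (purity-corrected) in 20 mM acetate buffer, pH 4.5, stored 28 days at 5 and 40° C. Purity by UPLC-UV as compound peak area over total peak area. Value is the purity difference between 5° C. and 40° C. samples, relative to the 5° C. purity, in percent.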

CRF1R receptor = target: T1, CRF1R receptor (Homo sapiens, UniProt P34998); assay: cAMP activity at anti-target CRF1R, CRF1R-overexpression CHO cell line (Example 9); type: cell-based
T1 construct: host or cells: CHO-K1 clone 2
T1 sequence (P34998 24-415): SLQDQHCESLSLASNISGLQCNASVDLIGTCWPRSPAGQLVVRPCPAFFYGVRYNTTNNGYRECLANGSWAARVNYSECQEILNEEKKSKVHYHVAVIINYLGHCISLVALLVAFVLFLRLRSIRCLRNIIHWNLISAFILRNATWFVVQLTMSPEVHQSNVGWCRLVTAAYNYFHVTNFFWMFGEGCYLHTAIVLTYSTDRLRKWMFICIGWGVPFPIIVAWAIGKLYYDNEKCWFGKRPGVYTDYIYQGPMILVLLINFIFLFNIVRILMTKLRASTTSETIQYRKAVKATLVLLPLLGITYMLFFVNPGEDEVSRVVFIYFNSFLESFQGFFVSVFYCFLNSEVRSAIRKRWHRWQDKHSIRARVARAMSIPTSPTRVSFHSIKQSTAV
Summary of the method: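 Using thawed CRF1R-overexpressing CHO cells at 2000 per well, compound is applied for 30 min at RT in HBSS/HEPES buffer with IBMX. Cellular cAMP content is determined via HTRF, and percent activity is calculated against 1000 nM UCN2 defined as 100%.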

recombinant human CRF2 = target: T2, recombinant human CRF2 (Homo sapiens, UniProt Q13324); assay: CRF2a (h) agonist radioligand binding, [125]sauvagine, HEK cell membranes (Example 11); conditions: competition with [125]sauvagine 0.1 nM
T2 construct: expressed in transfected cells; host or cells: HEK
T2 sequence (Q13324 1-411): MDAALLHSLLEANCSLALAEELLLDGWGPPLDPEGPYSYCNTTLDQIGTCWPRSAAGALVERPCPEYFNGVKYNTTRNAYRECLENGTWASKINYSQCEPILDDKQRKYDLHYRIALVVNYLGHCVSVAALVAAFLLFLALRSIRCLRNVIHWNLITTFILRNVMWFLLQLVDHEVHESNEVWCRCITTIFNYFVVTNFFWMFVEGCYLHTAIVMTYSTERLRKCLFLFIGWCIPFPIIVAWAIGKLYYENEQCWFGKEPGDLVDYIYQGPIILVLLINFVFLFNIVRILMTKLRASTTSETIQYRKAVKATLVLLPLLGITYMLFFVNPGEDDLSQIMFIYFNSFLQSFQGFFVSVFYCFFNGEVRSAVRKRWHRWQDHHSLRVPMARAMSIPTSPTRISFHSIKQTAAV
Protocol: Receptor binding of the compounds was assessed using a CRF2a (h) (agonist radioligand) assay.
HEK cells expressing recombinant human CRF2 were used as a source of receptor for membrane preparation.
IC50 values (concentration causing a half-maximal inhibition of control specific binding) and Hill coefficients (nH) were determined by non-linear regression analysis of the competition curves generated with mean replicate values using Hill equation curve fitting. The inhibition constants (Ki) were calculated using the Cheng Prusoff equation [Ki=IC50/(1+L/KD) where L is the concentration of radioligand in the assay, and KD is the affinity of the radioligand for the receptor). A Scatchard plot was used to determine the KD.

[2] = Physical stability, Thioflavin T fibrillation assay (Example 14); type: physicochemical; conditions: 3 mg/ml, 37° C. shaking
Summary of the method: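 Fibrillation tendency was judged from lag time and rise in Thioflavin T fluorescence, measured every 20 minutes over eight replicates per sample. Peptides at 3 mg/ml final were held at 37° C under cycles of 10 s shaking (960 rpm) and 50 s rest.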

[3] = Buffer A: 100 mM acetate buffer, pH 4.5
[4] = Buffer B: 100 mM acetate buffer, pH 4.5, 2.7 mg/ml m-cresol

| SMILES | Relative purity loss [%] [1] | EC50 (CRF1R receptor; 0% HSA, CRF1R-overexpression CHO cell line) | Emax (CRF1R receptor; CRF1R-overexpression CHO cell line, read-out: Emax (%)) | nH (Hill coefficient) (recombinant human CRF2) | Increase in FI (fluorescence intensity) [2, 3] | Lag time [2, 3] | Increase in FI (fluorescence intensity) [2, 4] | Lag time [2, 4] | Emax (CRF1R receptor; CHO) |
| --- | --- | --- | --- | --- | --- | --- | --- | --- | --- |
| CC[C@H](C)[C@H](N)C(=O)N[C@H](C(=O)N[C@@H](CC(C)C)C(=O)N[C@@H](CO)C(=O)N[C@@H](CC(C)C)C(=O)N[C@@H](CC(=O)O)C(=O)N[C@H](C(=O)N1CCC[C@H]1C(=O)N[C@H](C(=O)N[C@@H](CCCCN)C(=O)N[C@@H](CC(C)C)C(=O)N[C@@H](CCCCNC(=O)COCCOCCNC(=O)COCCOCCNC(=O)CC[C@H](NC(=O)CCCCCCCCCCCCCCCCC(=O)O)C(=O)O)C(=O)N[C@@H](CCCCN)C(=O)N[C@H](C(=O)N[C@@H](CC(C)C)C(=O)N[C@@H](CC(C)C)C(=O)N[C@@H](CCC(=O)O)C(=O)N[C@@H](CCC(N)=O)C(=O)N[C@@H](CCC(=O)O)C(=O)N[C@@H](CCCCN)C(=O)N[C@@H](CCC(N)=O)C(=O)N[C@@H](CCCCN)C(=O)N[C@@H](CCCCN)C(=O)N[C@@H](CCC(N)=O)C(=O)N[C@@H](CCCNC(=N)N)C(=O)N[C@@H](CCC(=O)O)C(=O)N[C@@H](CCC(N)=O)C(=O)N[C@@H](C)C(=O)N[C@@H](CCC(=O)O)C(=O)N[C@H](C(=O)N[C@@H](CC(N)=O)C(=O)N[C@@H](CCCCN)C(=O)N[C@@H](CCC(N)=O)C(=O)N[C@H](C(=O)N[C@@H](CC(C)C)C(=O)N[C@@H](C)C(=O)N[C@@H](CCC(N)=O)C(=O)N[C@H](C(N)=O)C(C)C)[C@@H](C)CC)[C@@H](C)O)[C@@H](C)CC)[C@@H](C)CC)C(C)C)C(C)C [compound 35] (H-IVLSLDVPIKLK([AEEA-AEEA-γGlu-C18 diacid])KILLEQEKQKKQREQAETNKQILAQV-NH2; N-terminus assumed) | 4.45% | > 1000 nM | 1.77% | 1.7 | No | >45 h | No | >45 h |  |
| CC[C@H](C)[C@H](NC(=O)[C@H](CCC(N)=O)NC(=O)[C@H](CCC(=O)O)NC(=O)[C@H](CC(C)C)NC(=O)[C@H](CC(C)C)NC(=O)[C@H](CCC(N)=O)NC(=O)[C@H](CCCCN)NC(=O)[C@H](CC(N)=O)NC(=O)[C@H](CCCCN)NC(=O)[C@H](CCC(=O)O)NC(=O)[C@H](C)NC(=O)[C@H](CCC(N)=O)NC(=O)[C@H](CCC(N)=O)NC(=O)[C@H](CCCNC(=N)N)NC(=O)[C@H](CCC(=O)O)NC(=O)[C@H](CCCCN)NC(=O)[C@H](CCCCN)NC(=O)[C@H](CCC(N)=O)NC(=O)[C@H](CCCCN)NC(=O)[C@H](CCC(N)=O)NC(=O)[C@H](CCC(N)=O)NC(=O)[C@H](CCCCN)NC(=O)[C@H](CC(C)C)NC(=O)[C@H](CC(C)C)NC(=O)[C@@H](NC(=O)[C@H](CCC(N)=O)NC(=O)[C@H](CCCCNC(=O)COCCOCCNC(=O)COCCOCCNC(=O)CC[C@H](NC(=O)CCCCCCCCCCCCCCCCCCC(=O)O)C(=O)O)NC(=O)[C@@H](NC(=O)[C@H](CCCCN)NC(=O)[C@@H](NC(=O)[C@@H]1CCCN1C(=O)[C@@H](NC(=O)[C@H](CC(=O)O)NC(=O)[C@H](CC(C)C)NC(=O)[C@H](CO)NC(=O)[C@H](CC(C)C)NC(=O)[C@@H](NC(=O)[C@@H](N)Cc1ccccc1)[C@@H](C)O)C(C)C)[C@@H](C)O)[C@@H](C)CC)[C@@H](C)CC)C(N)=O [compound 59] (H-FTLSLDVPTKIK([AEEA-AEEA-γGlu-C20 diacid])QILLKQQKQKKERQQAEKNKQLLEQI-NH2) | 2.85% |  |  | 0.6 |  |  |  |  | 11.1% |
